Seven molecules from paper PMC10299089, “Heterologous expression of genes from a cyanobacterial endosymbiont highlights substrate exchanges with its diatom host” (PNAS Nexus, 2023) can be followed below.

Data set [1] deals with T1, RintHH_11820 (NatB), SBP of N-I transporter (Richelia intracellularis, UniProt M1WZ73).
T1 construct: mature protein, signal peptide removed, N-terminal His tag, E. coli, nickel column
T1 sequence (M1WZ73 24-438): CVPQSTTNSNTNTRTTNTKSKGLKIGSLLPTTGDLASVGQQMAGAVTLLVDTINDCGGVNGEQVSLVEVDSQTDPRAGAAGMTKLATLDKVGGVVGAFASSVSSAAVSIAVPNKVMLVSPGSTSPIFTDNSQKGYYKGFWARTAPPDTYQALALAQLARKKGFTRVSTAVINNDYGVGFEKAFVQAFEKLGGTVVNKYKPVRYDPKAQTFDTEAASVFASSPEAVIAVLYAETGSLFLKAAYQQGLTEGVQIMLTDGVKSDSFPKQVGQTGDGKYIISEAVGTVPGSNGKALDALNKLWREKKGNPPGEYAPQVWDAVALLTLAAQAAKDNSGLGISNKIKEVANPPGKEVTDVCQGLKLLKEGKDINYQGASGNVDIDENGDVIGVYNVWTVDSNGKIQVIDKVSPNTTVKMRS
As to the kind of experiment: intrinsic Trp fluorescence quenching. The class given is binding. Particulars: excitation 280 nm, emission ~340 nm; ligand ~116 µM.

Data set [2] addresses T2, RintHH_12770 (NatF), SBP of N-II transporter (Richelia intracellularis, UniProt M1WZB0).
T2 construct: mature protein, signal peptide removed, N-terminal His tag, E. coli, nickel column
T2 sequence (M1WZB0 22-348 limits assumed): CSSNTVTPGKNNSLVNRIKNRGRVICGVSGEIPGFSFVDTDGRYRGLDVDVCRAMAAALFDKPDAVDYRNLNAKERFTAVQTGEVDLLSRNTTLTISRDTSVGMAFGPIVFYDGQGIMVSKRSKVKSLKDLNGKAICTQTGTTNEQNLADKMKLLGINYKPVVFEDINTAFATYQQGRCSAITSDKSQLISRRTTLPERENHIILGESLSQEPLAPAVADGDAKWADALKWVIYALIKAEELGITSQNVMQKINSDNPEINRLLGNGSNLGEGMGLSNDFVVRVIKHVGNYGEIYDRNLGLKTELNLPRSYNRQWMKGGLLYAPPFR
The data set is described as follows: intrinsic Trp fluorescence quenching. The class given is binding. Particulars: excitation 280 nm, emission ~340 nm; ligand ~7 µM.

Data set [3] concerns the target T3, RintHH_17430 (GlsR), periplasmic SBP (Richelia intracellularis, UniProt M1X141).
T3 construct: mature protein, signal peptidase II signal peptide removed, N-terminal Cys fused to Strep-tag II; pET28b(+), E. coli, StrepTrap
T3 sequence (M1X141 41-442): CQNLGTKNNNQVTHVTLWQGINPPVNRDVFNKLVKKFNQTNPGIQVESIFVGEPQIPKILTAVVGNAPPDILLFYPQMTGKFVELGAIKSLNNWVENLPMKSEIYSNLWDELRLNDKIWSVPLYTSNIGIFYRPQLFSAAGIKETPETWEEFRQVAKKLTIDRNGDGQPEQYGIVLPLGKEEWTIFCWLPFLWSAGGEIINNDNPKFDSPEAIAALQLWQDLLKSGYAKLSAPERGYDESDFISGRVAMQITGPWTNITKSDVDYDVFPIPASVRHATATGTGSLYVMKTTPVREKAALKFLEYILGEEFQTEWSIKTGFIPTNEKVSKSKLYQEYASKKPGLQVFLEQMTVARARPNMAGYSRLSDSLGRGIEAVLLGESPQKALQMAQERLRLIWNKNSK
The data set is described as follows: intrinsic Trp fluorescence quenching. The class given is binding. The settings on record: 0.02 mM protein, excitation 280 nm, emission ~340 nm.

Substrate in data set [4]: OC[C@H]1O[C@@](CO)(O[C@H]2O[C@H](CO)[C@@H](O)[C@H](O)[C@H]2O)[C@@H](O)[C@@H]1O
As to the kind of experiment: glucose production by HPLC (Dionex), E. coli cell-free extract. The class given is biochemical, Richelia intracellularis. The settings on record: pH 7, 30 °C, 120 mM potassium phosphate, crude extract.

As for `NCC(=O)O` [Gly], the “% quenching” value in data set [1] is “substantial quenching was produced by the neutral amino acids (L-Pro, L-Ala, L-Phe, Gly, and L-Leu)”.

On to `C[C@H](N)C(=O)O` [L-Ala], for which the “% quenching” value in data set [1] is “substantial quenching was produced by the neutral amino acids (L-Pro, L-Ala, L-Phe, Gly, and L-Leu)”.

On to `N[C@@H](CCC(=O)O)C(=O)O` [L-Glu], for which the “% quenching” value in data set [2] was “substantial quenching was only seen with L-Glu”.

In the case of `CC(C)C[C@H](N)C(=O)O` [L-Leu], the “% quenching” value in data set [1] is “substantial quenching was produced by the neutral amino acids (L-Pro, L-Ala, L-Phe, Gly, and L-Leu)”.

Regarding `O=C(O)[C@@H]1CCCN1` [L-Pro], in data set [1], the “% quenching” value was “substantial quenching was produced by the neutral amino acids (L-Pro, L-Ala, L-Phe, Gly, and L-Leu)”.

In the case of `OC[C@H]1O[C@@](CO)(O[C@H]2O[C@H](CO)[C@@H](O)[C@H](O)[C@H]2O)[C@@H](O)[C@@H]1O` [sucrose], the “% quenching at 1 μM” value in data set [3] is on record as ~ 22.5%.

B1: RintHH_3860 (InvB), neutral invertase (Richelia intracellularis HH01) (protein)
chain: MQPHKVILKDVEKDAWDTLEKTIIYYQGNPIGTVAALDSTANTLNYDQCFVRDFVVSALLFLIKGRTEIVRNFLKQTLKLQPKKKQLGTYKPGRGLMPASFKVTFNNGQEELEADFGENAIARVTPVDSSLWWIVLLRAYVVATKDYSLAYQDDFQQGIRLILDLCLATRFDMYPTLLVPDGACMIDRRLGIHGHPLEIQSLYYAALRAARELLICQGNEELVFAIDNRLPVLAAHIRKHYWIDLHRLNDIYRYRGEEYGKDAVNQFNIYVDSIPYSELDRWLPKGGGYLAGNVGPSQMDTRFFTLGNLMAVIIDLTTQEQSQAIMTLIEQRWDDLVGDMPMKITFPALENEEYKYVTGCDPKNIPWSYHNAGNWPVLMWMLAAACVKTNHRELMQRALTIAQERLKNDEWPEYYDGKQGRLIGRQSRKYQTWTIVGFLLAKEILAQPGSLSLISFDPFITKQVSQACELKFDYFDS
notes: synthetic gene in pET28b(+), expressed in E. coli; crude cell-free extract (purification unsuccessful)
Consider B1, for which the Michaelis constant (Km) in data set [4] was determined as 25.7 mM.
